Assay results as given in ChEMBL document CHEMBL1201862, “PubChem BioAssay data set” (2004).
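All cell lines were grown in 96-well plates and treated with compound for 48 hours. Here, GI50 denotes the concentration required for 50% inhibition of growth.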 Calls of active or inactive are those of the source. Rule as the data show it: active = GI50 up to about 1.1 µM and inactive = higher.

Columns and labels:
Test in all cases: growth of human tumour cells (NCI), 48 h
[1] = test system: COLO 205
[2] = test system: M19-MEL
[3] = test system: M14
[4] = test system: DMS-114
[5] = test system: NCI-H522
[6] = test system: U-251
[7] = test system: SK-MEL-5
[8] = test system: RPMI-8226
[9] = test system: SF-268
[10] = test system: SNB-19
[11] = test system: Malme-3M
[12] = test system: K562
[13] = test system: ACHN
[14] = test system: SN12C
[15] = test system: SF-295
[16] = test system: KM-20L2
[17] = test system: HOP-92
[18] = test system: SW-620
[19] = test system: SK-MEL-28
[20] = test system: OVCAR-3
[21] = test system: SF-539
[22] = test system: CCRF-CEM
[23] = test system: SK-MEL-2
[24] = test system: HT-29
[25] = test system: UACC-62
[26] = test system: HCT-15
[27] = test system: A498
[28] = test system: HOP-18
[29] = test system: CAKI-1
[30] = test system: UO-31
[31] = test system: EKVX
[32] = test system: TK-10
[33] = test system: NCI-H226
[34] = test system: OVCAR-8
[35] = test system: SK-OV-3
[36] = test system: XF498
[37] = test system: DMS-273
[38] = test system: IGROV-1
[39] = test system: DLD-1
[40] = test system: LXFL 529
[41] = test system: NCI-H23
[42] = test system: SNB-78
[43] = test system: SNB-75
[44] = test system: MOLT-4
[45] = test system: HL-60
[46] = test system: NCI-H460
[47] = test system: LOX IMVI
[48] = test system: HCT-116
[49] = test system: OVCAR-5
[50] = test system: A549
[51] = test system: 786-0
[52] = test system: OVCAR-4
[53] = test system: KM12
[54] = test system: UACC-257
[55] = test system: RXF 393
[56] = test system: HOP-62
[57] = test system: HCC 2998

Compound: CCOc1ccc(C2=C(Cl)c3cc(OC)c(OC)cc3C2Cl)cc1 (stereo not given)
- GI50 [1]: 63.5 µM (inactive)
- GI50 [2]: 45.2 µM (inactive)
- GI50 [3]: 35.8 µM (inactive)
- GI50 [4]: 18.6 µM (inactive)
- GI50 [5]: 17.2 µM (inactive)
- GI50 [6]: 18.2 µM (inactive)
- GI50 [7]: 18.3 µM (inactive)
- GI50 [8]: 21.3 µM (inactive)
- GI50 [9]: 59.6 µM (inactive)
- GI50 [10]: > 100 µM (inactive)
- GI50 [11]: 33.8 µM (inactive)
- GI50 [12]: > 10 µM (inactive)
- GI50 [13]: 31.6 µM (inactive)
- GI50 [14]: 42.4 µM (inactive)
- GI50 [15]: 35 µM (inactive)
- GI50 [16]: 38.8 µM (inactive)
- GI50 [17]: 25.4 µM (inactive)
- GI50 [18]: 29.2 µM (inactive)
- GI50 [19]: 87.5 µM (inactive)
- GI50 [20]: 59 µM (inactive)
- GI50 [21]: 29.8 µM (inactive)
- GI50 [22]: 25.2 µM (inactive)
- GI50 [23]: 23.1 µM (inactive)
- GI50 [24]: 32.1 µM (inactive)
- GI50 [25]: 26.2 µM (inactive)
- GI50 [26]: 27.1 µM
- GI50 [27]: 19.8 µM (inactive)
- GI50 [28]: 42.8 µM (inactive)
- GI50 [29]: 46.1 µM (inactive)
- GI50 [30]: 45 µM (inactive)
- GI50 [31]: 66.7 µM (inactive)
- GI50 [32]: 79.8 µM (inactive)
- GI50 [33]: 30.8 µM (inactive)
- GI50 [34]: 36.4 µM (inactive)
- GI50 [35]: > 100 µM (inactive)
- GI50 [36]: 19.6 µM (inactive)
- GI50 [37]: 37.9 µM (inactive)
- GI50 [38]: 72.4 µM (inactive)
- GI50 [39]: 37.6 µM (inactive)
- GI50 [40]: 26.8 µM (inactive)
- GI50 [41]: 44.4 µM (inactive)
- GI50 [42]: 27.4 µM (inactive)
- GI50 [43]: 44.1 µM (inactive)
- GI50 [44]: 19.5 µM (inactive)
- GI50 [45]: 13.4 µM (inactive)
- GI50 [46]: 29.3 µM (inactive)
- GI50 [47]: 19.5 µM (inactive)

Compound: COc1ccc(C=O)c(NC(=O)C(C)C)c1
- GI50 [1]: 18.2 µM (inactive)
- GI50 [2]: 21 µM (inactive)
- GI50 [3]: 37.6 µM (inactive)
- GI50 [4]: 24.4 µM (inactive)
- GI50 [48]: 15.8 µM (inactive)
- GI50 [5]: 15.9 µM (inactive)
- GI50 [6]: 77.1 µM (inactive)
- GI50 [7]: > 10 µM (inactive)
- GI50 [8]: 20.5 µM (inactive)
- GI50 [9]: 36.2 µM (inactive)
- GI50 [10]: 72.1 µM (inactive)
- GI50 [11]: 27.4 µM (inactive)
- GI50 [49]: > 100 µM (inactive)
- GI50 [12]: 31 µM (inactive)
- GI50 [13]: 29.8 µM (inactive)
- GI50 [50]: 27.2 µM (inactive)
- GI50 [14]: 23 µM (inactive)
- GI50 [15]: 32.7 µM (inactive)
- GI50 [16]: 51.5 µM (inactive)
- GI50 [17]: 18.2 µM (inactive)
- GI50 [18]: > 10 µM (inactive)
- GI50 [19]: 69.2 µM (inactive)
- GI50 [20]: 30.5 µM (inactive)
- GI50 [21]: 40.4 µM (inactive)
- GI50 [22]: > 10 µM (inactive)
- GI50 [23]: 37.6 µM (inactive)
- GI50 [51]: 74.6 µM (inactive)
- GI50 [24]: 66.7 µM (inactive)
- GI50 [25]: 30.3 µM (inactive)
- GI50 [26]: 33.3 µM
- GI50 [27]: 49.7 µM (inactive)
- GI50 [28]: 39.7 µM (inactive)
- GI50 [52]: 27 µM (inactive)
- GI50 [30]: 33.3 µM (inactive)
- GI50 [31]: 31.6 µM (inactive)
- GI50 [32]: 85.7 µM (inactive)
- GI50 [33]: > 10 µM (inactive)
- GI50 [34]: 30.8 µM (inactive)
- GI50 [53]: > 10 µM (inactive)
- GI50 [35]: > 100 µM (inactive)
- GI50 [36]: 21.9 µM (inactive)
- GI50 [37]: 28.9 µM (inactive)
- GI50 [38]: > 100 µM (inactive)
- GI50 [40]: 44.9 µM (inactive)
- GI50 [54]: 27.2 µM (inactive)
- GI50 [41]: 26 µM (inactive)
- GI50 [42]: 66.1 µM (inactive)
- GI50 [55]: 12.3 µM (inactive)
- GI50 [43]: 30.6 µM (inactive)
- GI50 [44]: 21.3 µM (inactive)
- GI50 [46]: > 100 µM (inactive)
- GI50 [47]: 31.7 µM (inactive)

Compound: CC12CCc3ccccc3C1=NNC(=O)C2 (stereo not given)
- GI50 [1]: > 100 µM (inactive)
- GI50 [2]: > 100 µM (inactive)
- GI50 [3]: > 100 µM (inactive)
- GI50 [4]: > 100 µM (inactive)
- GI50 [48]: > 100 µM (inactive)
- GI50 [5]: > 100 µM (inactive)
- GI50 [6]: > 100 µM (inactive)
- GI50 [7]: > 100 µM (inactive)
- GI50 [8]: > 100 µM (inactive)
- GI50 [9]: > 100 µM (inactive)
- GI50 [10]: > 100 µM (inactive)
- GI50 [11]: > 100 µM (inactive)
- GI50 [49]: > 100 µM (inactive)
- GI50 [12]: > 100 µM (inactive)
- GI50 [13]: > 100 µM (inactive)
- GI50 [50]: > 100 µM (inactive)
- GI50 [14]: > 100 µM (inactive)
- GI50 [15]: > 100 µM (inactive)
- GI50 [16]: > 100 µM (inactive)
- GI50 [17]: > 100 µM (inactive)
- GI50 [18]: > 100 µM (inactive)
- GI50 [19]: > 100 µM (inactive)
- GI50 [20]: > 100 µM (inactive)
- GI50 [21]: > 100 µM (inactive)
- GI50 [22]: > 100 µM (inactive)
- GI50 [23]: > 100 µM (inactive)
- GI50 [51]: > 100 µM (inactive)
- GI50 [24]: > 100 µM (inactive)
- GI50 [56]: > 100 µM (inactive)
- GI50 [26]: > 100 µM
- GI50 [27]: > 100 µM (inactive)
- GI50 [28]: > 100 µM (inactive)
- GI50 [29]: > 100 µM (inactive)
- GI50 [52]: > 100 µM (inactive)
- GI50 [30]: > 100 µM (inactive)
- GI50 [31]: > 100 µM (inactive)
- GI50 [32]: > 100 µM (inactive)
- GI50 [33]: > 100 µM (inactive)
- GI50 [34]: > 100 µM (inactive)
- GI50 [53]: > 100 µM (inactive)
- GI50 [35]: > 100 µM (inactive)
- GI50 [36]: > 100 µM (inactive)
- GI50 [37]: > 100 µM (inactive)
- GI50 [38]: > 100 µM (inactive)
- GI50 [39]: > 100 µM (inactive)
- GI50 [40]: > 100 µM (inactive)
- GI50 [54]: > 100 µM (inactive)
- GI50 [41]: > 100 µM (inactive)
- GI50 [42]: > 100 µM (inactive)
- GI50 [57]: > 100 µM (inactive)
- GI50 [55]: > 100 µM (inactive)
- GI50 [43]: > 100 µM (inactive)
- GI50 [44]: > 100 µM (inactive)
- GI50 [45]: 82 µM (inactive)
- GI50 [46]: > 100 µM (inactive)
- GI50 [47]: > 100 µM (inactive)
